Measurements as given in patent US20100256214A1, “EPH RECEPTOR LIGANDS AND METHODS OF USE” (Burnham Institute for Medical Research, priority 2009, published 2010).
Like-named read-outs stand apart in the source and are kept apart here.

Assays:
retinal neurons = test: Growth cone collapse assay, nasal retina explants; assay type: cell-based, chicken; settings: for ephrin-A5 Fc induced growth cone collapse: 1 μg/mL ephrin-A5 Fc, 400 μM compound, 5 μM KYL peptide; for shape of unstimulated growth cones: concentrations as high as 400 μM
Protocol: FIGS. 8A-8F. Compounds 1 and 2 block EphA4-dependent growth cone collapse in retinal neurons. A. Explants from embryonic day 6 chicken embryonic were preincubated with 5 μM KYL peptide for 15 min, stimulated for 30 min with 1 μg/mL ephrin-A5 Fc or Fc as a control in the continued presence of the peptide, and stained with rhodamine-phalloidin to label filamentous actin. B. Histogram showing the mean percentages of collapsed growth cones. Growth cones were scored as collapsed when no lamellipodia or filopodia were visible at the tip of the neurite. Approximately 30-200 growth cones per condition were scored in each experiment and error bars indicate standard error from 3 independent experiments. C-F. Experiments were performed as in (A), except that retinal explants were treated with 400 μM compound 1 (C,D) or compound 2 (E,F). Approximately 80-250 growth cones per condition were scored in each experiment, and error bars indicate standard error from 3 experiments. Collapsed growth cones under different conditions were compared to those in the Fc control condition by one-way ANOVA and Dunnett's post test. *P<0.05 and **P<0.01. Scale bars in (A), (C), (E)=[…].
Growth Cone Collapse Assay—Nasal retina explants from embryonic day 6 chicken embryos were cultured on coverslips coated with 200 μg/mL poly-L-lysine and 20 μg/mL lamining for 12 to 24 hours in DMEM/F-12 culture medium containing 10% FBS and 0.4% methylcellulose. Three hours before adding the Fc fusion proteins, the medium was changed to DMEM/F-12 without methylcellulose. The explants were incubated for 15 min with the KYL peptide or the chemical compounds and then stimulated for 30 min with 1 μg/mL preclustered ephrin-A5 Fc or Fc as a control. The cultures were fixed for 30 min in 4% paraformaldehyde/4% sucrose in phosphate buffered saline (PBS), permeabilized in 0.1% Triton X-100 in PBS and stained with rhodamine-conjugated phalloidin (Invitrogen, Carlsbad, Calif.). Cells were photographed under a fluorescence microscope and growth cones where scored in a blinded manner as collapsed when no lamellipodia or filopodia were present at the tip of the neurite.

HT22 neuronal cells = test: MTT cytotoxicity assay; assay type: cell-based, mouse; settings: concentrations up to 400 μM for several days
Protocol: FIG. 7. HT22 neuronal cells were grown in the presence of the indicated concentrations of compounds 1 and 2 for 1, 2 and 3 days. Only DMSO was used in the “0 μM” sample, as a control. After addition of MTT, absorbance was measured at 570 nm to determine the levels of viable cells present. The histograms show the absorbance obtained for each condition normalized to the absorbance in the absence of the compounds. Error bars represent standard error from 3 measurements.
MTT Assay—The cytotoxicity of the compounds was measured using the 3-(4,5-dimethylthiazol-2-yl)-2,5-diphenyltetrazolium bromide (MTT) colorimetric assay. Cells were seeded in 96-well plates and treated with compounds or DMSO starting 3, 2 or 1 day before they reached 100% confluency. For the assay, MTT (Sigma-Aldrich, St. Louis, Mo.) was added at a final concentration of […] and incubated with the cells for 3 hours. The resulting formazan crystals were then solubilized by addition of 100% DMSO. The absorbance in each well was measured at 570 nm using an ELISA plate reader. The results were expressed as the ratio of the absorbance of the cells treated with the compounds and left untreated.

EphA4 = EphA4 (Homo sapiens, UniProt P54764); test: ELISA, ephrin-A5 AP binding to immobilized EphA4 Fc; settings: for IC50: read-out: IC50 for inhibition of ephrin-A5 AP binding to EphA4
Chain of EphA4 (P54764 20-547 limits assumed, species assumed): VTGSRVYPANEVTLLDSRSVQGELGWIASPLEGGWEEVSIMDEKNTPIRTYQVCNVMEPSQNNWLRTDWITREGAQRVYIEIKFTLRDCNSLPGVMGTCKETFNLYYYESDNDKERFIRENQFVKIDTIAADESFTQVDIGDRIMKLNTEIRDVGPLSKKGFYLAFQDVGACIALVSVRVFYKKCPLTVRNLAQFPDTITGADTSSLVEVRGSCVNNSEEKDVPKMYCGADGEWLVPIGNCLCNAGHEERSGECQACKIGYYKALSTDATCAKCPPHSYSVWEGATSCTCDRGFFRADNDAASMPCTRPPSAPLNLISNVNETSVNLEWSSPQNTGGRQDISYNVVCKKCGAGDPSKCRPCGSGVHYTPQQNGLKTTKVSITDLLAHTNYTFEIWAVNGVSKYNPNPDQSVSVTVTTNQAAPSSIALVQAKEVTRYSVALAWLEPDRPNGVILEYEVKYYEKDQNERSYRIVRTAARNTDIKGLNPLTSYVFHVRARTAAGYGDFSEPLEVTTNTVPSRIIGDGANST
Protocol: ELISA Assays and K, Determination—Protein A-coated wells (Pierce Biotecnology, Rockford, Ill.) were used to immobilize ephrin Fc fusion proteins (R&D Systems, Minneapolis, Minn.). Compounds at different concentrations were incubated with EphA4 AP (Cheng and Flanagan, (1994) Cell 79(1), 157-168) or EphA2 AP (Koolpe et al. (2002) J Biol Chem 277(49), 46974-46979) for 3 hours. Alternatively, Eph receptor Fc fusion proteins were immobilized on protein A-coated wells and ephrin-A5 AP (Menzel et al. (2001) Developmental Biology 230(1), 74-88) or ephrin-B2 AP (GeneHunter, Nashville, Tenn.) were added with the compounds. The amount of bound AP-fusion protein was quantified using pNPP as the substrate. Alkaline phosphatase activity from wells with Fc only was subtracted as background. To confirm that the binding of the compounds to EphA4 was reversible, the compounds were removed and the wells were incubated in binding buffer for 3 hours before washing and incubating with ephrin AP fusion proteins. Under these conditions, no inhibition of ephrin binding was observed indicating the reversible binding of the compounds.
To calculate the inhibition constant (KO values, the binding of ephrin-A5 AP to EphA4 Fc immobilized on protein A-coated wells was measured in the absence and in the presence of the compounds at different concentrations. Each data set was fitted to the Michaelis-Menten equation: B=Bmax [S]/(KD+[S]), where [S] is the concentration of ephrin AP fusion protein and KD is the dissociation constant observed in the absence or in the presence of the compound, using non linear regression and the program GraphPad (Prism). To evaluate whether the inhibition is competitive, noncompetitive or uncompetitive the KD and Bmax values were determined at different compound concentrations. The Ki was obtained from the linear regression plot of KD/Bmax as a function of the concentration of the inhibitor according to: KD/Bmax=(KD[S])/(Ki·Bmax)+KD/Bmax. Alternatively, Ki values were obtained from the dose response curves, using the Cheng-Prusoff equation: Ki=IC50/(1+[S]/KD) (XX38, Cheng, Y., and Prusoff, W. H. (1973) Biochemical pharmacology 22(23), 3099-3108). Ephrin-A5 AP concentration were calculated from alkaline phosphatase activity (Flanagan et al. (2000) Methods in Enzymology. 327, 19-35).

[1] = from ephrin-A5 AP binding curves at different compound concentrations, read-out: Ki, competitive inhibition of EphA4-ephrin-A5 binding
[2] = from other inhibition curves using different ephrin concentrations, read-out: Ki calculated with the Cheng-Prusoff equation, EphA4-ephrin-A5
[3] = from the inhibition curves shown in FIG. 2, read-out: Ki calculated with the Cheng-Prusoff equation, EphA4-ephrin-A5

Structure (SMILES)	ephrin-A5 Fc induced growth cone collapse (retinal neurons)	ephrin-A5 Fc induced growth cone collapse (retinal neurons; listed as Compound 1)	shape of unstimulated growth cones (retinal neurons)	toxicity, cell viability by MTT (HT22 neuronal cells)	inhibition of EphA4-ephrin-A5 binding (in words) (EphA4)	reversibility of binding to EphA4 (EphA4; compounds removed, 3 hours in binding buffer before ephrin AP)	Ki (EphA4; [1]) [µM]	Ki (EphA4; [2]) [µM]	Ki (EphA4; [3]) [µM]	IC50 (EphA4) [µM]
Cc1ccc(C)n1-c1ccc(C(=O)O)c(O)c1 [compound 1, 4-(2,5-dimethyl-pyrrol-1-yl)-2-hydroxy-benzoic acid]	block	blocked	neither the KYL peptide nor the two compounds at concentrations as high as 400 μM affected the shape	did not reveal any toxicity	inhibit	binds reversibly	8	6 to 10	10	13
Cc1ccc(C)n1-c1ccc(O)c(C(=O)O)c1 [compound 2, 5-(2,5 dimethyl-pyrrol-1-yl)-2-hydroxy-benzoic acid]	block	–	neither the KYL peptide nor the two compounds at concentrations as high as 400 μM affected the shape	did not reveal any toxicity	inhibit	–	7	6 to 8	6	9
